Legend:
[1] = test system: human non-small cell lung cancer (Calu-6); assay: Example 2: FK330 with multicycle paclitaxel in Calu-6 tumor-bearing mice; assay type: in vivo, nude mice; conditions: for tumor volume reduction ratio compared with the paclitaxel-only group: FK330 100 mg/kg bid p.o. continuously + paclitaxel 10 mg/kg/day i.v. multicycle, P<0.01
Experimental: The dose of FK330 is expressed in weight including the hydrate. A paclitaxel injectable preparation (paclitaxel injection liquid, “Sawai”) was purchased from Sawai Pharmaceutical Co., Ltd., and was used as paclitaxel.
FK330 was suspended (20 mg/mL) in a 0.5% aqueous methyl cellulose solution (0.5% MC). Paclitaxel was prepared with physiological saline for injection (Otsuka Pharmaceutical Group) to a concentration of 1 mg/mL at the time of use.
(§1) Human lung cancer-derived Calu 6 (HTB-56) was obtained from American Type Culture Collection (VA, USA). The cells were cultured under the conditions of 37° C. and 5% CO2 by using RPMI1640 medium containing 10% heat-inactivated fetal bovine serum (FBS). The cells were harvested with trypsin and were suspended in PBS at 6×10^7 cells/mL, and the suspension was mixed with an equal amount of Matrigel (trade name) Basement Membrane Matrix (manufactured by Becton Dickinson Co., Bedford, Mass., USA).
Five-week old male nude mice (CAnN Cg-Foxn1nu/CrICrlj(nu/nu)) were purchased from Charles River Laboratories Japan, Inc. (Japan, Kanagawa). The animals were raised under specific pathogen-free (SPF) conditions throughout the test period by feeding standard feedstuff and drinking water. The cultured cells were subcutaneously inoculated into the dorsal region of the nude mice at a concentration of 3×10^6 cells/0.1 mL/mouse. Nude mice which had the tumor volumes (major axis×[minor axis]^2×0.52) ranging from 136.5 mm^3 to 299.0 mm^3 were assigned by using SAS to minimize the fluctuation in the tumor volume between the groups and within the group.
The first day of administration was designated as Day 1, and observation was made until Day 83. The respective groups (n=6) were treated as follows. FK330 was orally gavaged in an amount of 5 mL/kg, and paclitaxel was administered intravenously through the tail vein in an amount of 10 mL/kg. Paclitaxel was continuously administered from Day 1 to Day 7, and then was withdrawn for 23 days (1 cycle). In the administration of PTX in the second cycle and the third cycle, PTX was continuously administered for 6 days from Day 31 and from Day 60, respectively. […]
(§2) Every 2 to 4 days, the body weight and the tumor diameters, determined by using a digital caliper, were measured. The tumor volume was calculated from the calculation formula for ellipsoid volume of (major axis×[minor axis]^2×0.52).
The results are expressed as the mean value (Mean)±standard error (SEM). […] Using the actual measured values of the tumor volume at the end of the study, an unpaired statistical test (Student's t-test) of the difference between two groups was carried out between a single administration group and a combined use group. […]

[2] = test system: human gastric cancer (AZ-521); assay: Example 5: FK330 with paclitaxel in AZ-521 tumor-bearing mice; assay type: in vivo, nude mice; conditions: for tumor volume on the last day of experiment: AZ-521, Day 46, mean±SEM
Experimental: Preparation of the test substances was carried out in the same manner as in Example 2.
as §1, with “gastric” for “lung”, “NCI-N87 (CRL-5822)” for “Calu 6 (HTB-56)”, “USA), MKN-28 (JCRB0253) was obtained from Health Science Research Resources Bank (HSRRB), and AZ-521 (RCB2087) was obtained from Riken BRC. NCI-N87 and MKN-28” for “USA). The”, “(FBS), and AZ-521 cells were cultured under the conditions of 37° C. and 5% CO2 by using DMEM medium containing 10% heat-inactivated FBS.” for “(FBS).”
Five-week old male nude mice (CAnN Cg-Foxn1nu/CrlCrlj(nu/nu)) were purchased from Charles River Laboratories Japan, Inc. (Japan, Kanagawa). The animals were raised under specific pathogen-free (SPF) conditions throughout the test period by feeding standard feedstuff and drinking water. The cultured cells were subcutaneously inoculated into the dorsal region of the nude mice at a concentration of 3×10^6 cells/0.1 mL/mouse. […]
as §2
The results are expressed as the mean value (Mean)±standard error (SEM). Using the actual measured values of the tumor volume at each measurement time point, an unpaired statistical test (Student's t-test) of the difference between two groups was carried out between a single administration group and a combined use group. […]

Compound	tumor volume reduction ratio compared with the paclitaxel-only group ([1]; Day 29) [%]	tumor volume reduction ratio compared with the paclitaxel-only group ([1]; Day 60) [%]	tumor volume reduction ratio compared with the paclitaxel-only group ([1]; Day 83) [%]	tumor volume on the last day of experiment ([2]; combined use group paclitaxel 10 mg/kg/day + FK330 100 mg/kg bid) [mm^3]	tumor volume decrease compared with the paclitaxel-only group ([2]; AZ-521, last day, FK330 100 mg/kg bid + paclitaxel, P<0.01) [%]	anti-tumor effect of paclitaxel as a result of multicycle administration ([1]; paclitaxel 10 mg/kg/day i.v. alone, three cycles, until Day 83)	tumor volume on the last day of experiment ([2]; paclitaxel-only group 10 mg/kg/day i.v., two cycles) [mm^3]
O=C(/C=C/c1ccc(Cl)cc1)N[C@@H](Cc1ccccn1)C(=O)NCC(=O)N1CCC(Oc2cc(C(F)(F)F)ncn2)CC1 [FK330, N^2-[(2E)-3-(4-chlorophenyl)-2-propenoyl]-N-[2-oxo-2-(4-{[6-(trifluoromethyl)pyrimidin-4-yl]oxy}piperidin-1-yl)ethyl]-3-pyridin-2-yl-L-alaninamide]	57.6	86.1	87.6	795.0±223.3	75.8		
CC(=O)O[C@H]1C(=O)[C@@]2(C)[C@H]([C@H](OC(=O)c3ccccc3)[C@]3(O)C[C@H](OC(=O)[C@H](O)[C@@H](NC(=O)c4ccccc4)c4ccccc4)C(C)=C1C3(C)C)[C@]1(OC(C)=O)CO[C@@H]1C[C@@H]2O [paclitaxel, reference compound]						tended to attenuate	3285.4±359.4
